This is an account of results in US20070219183A1, “Dihydropyrazolo[1,5-A]pyrimidine and dihydroimidazo[1,5-A]pyrimidine derivatives and methods of use thereof” (Wyeth, priority 2006, published 2007).

The structures appear in SMILES notation. Some results are limits rather than exact numbers.

For the test, the target named is T1, Flag/GST-tagged recombinant human B-Raf (Homo sapiens, UniProt P15056).
T1 construct: Flag; GST; made in house; host or cells: Sf9 insect cells (B-Raf); E. coli (Mek-1-GST)
T1 sequence (P15056 whole entry): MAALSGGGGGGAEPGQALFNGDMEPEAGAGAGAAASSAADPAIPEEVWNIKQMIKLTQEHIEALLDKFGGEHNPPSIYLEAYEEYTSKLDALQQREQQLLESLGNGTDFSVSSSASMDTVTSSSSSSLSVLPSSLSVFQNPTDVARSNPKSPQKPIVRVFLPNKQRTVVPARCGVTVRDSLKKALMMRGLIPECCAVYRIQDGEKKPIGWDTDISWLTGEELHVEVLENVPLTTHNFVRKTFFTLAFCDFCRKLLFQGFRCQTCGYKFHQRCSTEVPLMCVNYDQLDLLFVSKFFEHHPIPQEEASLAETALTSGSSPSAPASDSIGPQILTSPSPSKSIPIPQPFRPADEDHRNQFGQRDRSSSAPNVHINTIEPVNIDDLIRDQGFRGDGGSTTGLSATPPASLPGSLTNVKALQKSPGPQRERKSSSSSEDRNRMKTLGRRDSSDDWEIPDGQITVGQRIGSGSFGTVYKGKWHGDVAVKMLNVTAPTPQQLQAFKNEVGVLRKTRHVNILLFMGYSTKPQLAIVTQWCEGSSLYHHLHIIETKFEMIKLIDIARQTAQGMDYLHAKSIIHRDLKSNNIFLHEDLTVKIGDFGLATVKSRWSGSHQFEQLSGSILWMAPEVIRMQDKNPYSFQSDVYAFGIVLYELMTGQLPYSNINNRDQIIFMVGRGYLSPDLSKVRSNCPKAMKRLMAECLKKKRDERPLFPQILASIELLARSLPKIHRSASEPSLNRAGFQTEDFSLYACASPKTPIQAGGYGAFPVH
In words: B-Raf Kinase to MEK1 ELISA. The class given is biochemical. Particulars: phosphorylation of GST-MEK1 (50 nM final), phospho-MEK1 antibody/Europium readout; 60 minutes at RT. The text has this: • TITLE: B-Raf Kinase to MEK1 ELISA • PURPOSE: To discover B-Raf Kinase inhibitors that can inhibit growth of tumor cells which contain oncogenic forms of Receptor Tyrosine Kinases or K-Ras, or B-Raf kinase.
Reagents: Flag/GST-tagged recombinant human B-Raf produced in Sf9 insect cells, human non-active Mek-1-GST (recombinant protein produced in E. coli); and a phospho-MEK1 specific poly-clonal Ab from Cell Signaling Technology (cat. #9121).
B-Raf-1 is used to phosphorylate GST-MEK1. MEK1 phosphorylation is measured by a phospho-specific antibody (from Cell Signaling Technology, cat. #9121) that detects phosphorylation of two serine residues at positions 217 and 221 on MEK1.
1. Assay Dilution Buffer (ADB): 20 mM MOPS, pH 7.2, 25 mM β-glycerol phosphate, 5 mM EGTA, 1 mM sodium orthovanadate, 1 mM dithiothreitol.
2. Magnesium/ATP Cocktail: 200 μM cold ATP and 40 mM magnesium chloride in ADB.
4. Active Kinase: Active B-Raf: used at ˜20 ng per assay point.
5. Non-active GST-MEK1: Use at 100 nM (50 nM final).
7. Anti-GST Ab (Pharmacia)
8. Anti-rabbit Ab/Europium conjugate (Wallac)
1. Add 25 μl of ADB containing B-Raf and Mek per assay (i.e. per well of a 96 well plate)
2. Add 25 μl of 0.2 mM ATP and 40 mM magnesium chloride in ADB.
3. Incubate for 60 minutes at RT in a shaking incubator.
4. Transfer this mixture to an anti-GST Ab coated 96 well plate (Nunc Immunosorb plates coated o/n with a-GST.
5. Incubate for 60 minutes at 30° C. in a shaking incubator
6. Wash 3× with TBST, add Anti-Phospho MEK1 (1:1000)
7. Incubate for 60 minutes at 30° C. in a shaking incubator
8. Wash 3× with TBST, add Anti-rabbit Ab/Europium conjugate (Wallac) (1:500)
9. Incubate for 60 minutes at 30° C. in a shaking incubator
10. Add 100 ul of Wallac Delfia Enhancement Solution and shake for 10 minutes.
11. Read plates in Wallac Victor model Plate Reader.
12. Collect data analyze in Excel for single point and IC50 determinations.
• Single point assay—% inhibition at […] (% Inhibition=1−cpd.treated sample/untreated control) • IC50 determinations—done on cpds from single pt assays with >80% inhibition. Typically Raf-1 assay is run at cpd concentrations from 10 μM to 30 nM in half log dilutions. (% inhibition is determined for each cpd concentration) • Data handling—Data is analyzed in Excel, and will transferred to Radis.
For the compound `O=C(Nc1cccc(C2=CCNc3ccnn32)c1)c1cccc(C(F)(F)F)c1` [Example 1, N-[3-(4,5-dihydropyrazolo[1,5-a]pyrimidin-7-yl)phenyl]-3-(trifluoromethyl)benzamide], the IC50 is more than 10000 nM.

As to `CS(=O)(=O)N1CC=C(c2cccc(NC(=O)c3cccc(C(F)(F)F)c3)c2)n2nccc21` [Example 2, N-{3-[4-(Methylsulfonyl)-4,5-dihydropyrazolo[1,5-a]pyrimidin-7-yl]phenyl}-3-(trifluoromethyl)benzamide], the IC50 came out at 683 nM.

Consider `COC(=O)N1CC=C(c2cccc(NC(=O)c3cccc(C(F)(F)F)c3)c2)n2nccc21` [Example 3, Methyl 7-(3-{[3-(trifluoromethyl)benzoyl]amino}phenyl)pyrazolo[1,5-a]pyrimidine-4(5H)-carboxylate], for which the half-inhibitory concentration (IC50) turned out to be 163 nM. For `CCOC(=O)N1CC=C(c2cccc(NC(=O)c3cccc(C(F)(F)F)c3)c2)n2nccc21` [Example 4, Ethyl 7-(3-{[3-(trifluoromethyl)benzoyl]amino}phenyl)pyrazolo[1,5-a]pyrimidine-4(5H)-carboxylate] the value was 370 nM. Consider `CC(C)NC(=O)N1CC=C(c2cccc(NC(=O)c3cccc(C(F)(F)F)c3)c2)n2nccc21` [Example 5, N-isopropyl-7-(3-{[3-(trifluoromethyl)benzoyl]amino}phenyl)pyrazolo[1,5-a]pyrimidine-4(5H)-carboxamide], for which the concentration for half-maximal inhibition (IC50) worked out at 1620 nM.

With `CC(C)(C)OC(=O)N1CC=C(c2cccc(NC(=O)c3cccc(C(F)(F)F)c3)c2)n2nccc21` [Example 6, tert-Butyl 7-(3-{[3-(trifluoromethyl)benzoyl]amino}phenyl)pyrazolo[1,5-a]pyrimidine-4(5H)-carboxylate], the IC50 stood at 815 nM.

Consider `CC#CCN1CC=C(c2cccc(NC(=O)c3cccc(C(F)(F)F)c3)c2)n2nccc21` [Example 7, N-[3-(4-But-2-yn-1-yl-4,5-dihydropyrazolo[1,5-a]pyrimidin-7-yl)phenyl]-3-(trifluoromethyl)benzamide], for which the IC50 worked out at 868 nM. For `CCOC(=O)c1cnn2c1NCC=C2c1cccc(NC(=O)c2cccc(C(F)(F)F)c2)c1` [Example 8, Ethyl 7-(3-{[3-(trifluoromethyl)benzoyl]amino}phenyl)-4,5-dihydropyrazolo[1,5-a]pyrimidine-3-carboxylate] the value was 278 nM.

Consider `CCNC(=O)N1CC=C(c2cccc(NC(=O)c3cccc(C(F)(F)F)c3)c2)n2nccc21` [Example 9, N-Ethyl-7-(3-{[3-(trifluoromethyl)benzoyl]amino}phenyl)pyrazolo[1,5-a]pyrimidine-4(5H)-carboxamide], for which the 50% inhibitory concentration (IC50) was more than 10000 nM.

Take `CC(=O)N1CC=C(c2cccc(NC(=O)c3cccc(C(F)(F)F)c3)c2)n2nccc21` [Example 10, N-[3-(4-Acetyl-4,5-dihydropyrazolo[1,5-a]pyrimidin-7-yl)phenyl]-3-(trifluoromethyl)benzamide]: the IC50 turned out to be 3770 nM.

Regarding `CCOC(=O)c1cnn2c1N(C(C)=O)CC=C2c1cccc(NC(=O)c2cccc(C(F)(F)F)c2)c1` [Example 11, Ethyl 4-acetyl-7-(3-{[3-(trifluoromethyl)benzoyl]amino}phenyl)-4,5-dihydropyrazolo[1,5-a]pyrimidine-3-carboxylate], the IC50 was 572 nM. Under `CC(C)(C)OC(=O)N1CC=C(c2cccc(N(C(=O)OC(C)(C)C)C(=O)c3cccc(C(F)(F)F)c3)c2)n2nccc21` [Example 12, tert-Butyl 7-(3-{(tert-butoxycarbonyl)[3-(trifluoromethyl)benzoyl]amino}phenyl)pyrazolo[1,5-a]pyrimidine-4(5H)-carboxylate 4(5H)-carboxylate] stands more than 10000 nM. For `CCOC(=O)c1cnn2c1N(C(=O)OC)CC=C2c1cccc(NC(=O)c2cccc(C(F)(F)F)c2)c1` [Example 13, 3-Ethyl 4-methyl 7-(3-{[3-(trifluoromethyl)benzoyl]amino}phenyl)pyrazolo[1,5-a]pyrimidine-3,4(5H)-dicarboxylate] the value was 126 nM; for `CC(C)(C)OC(=O)NCC(=O)N1CC=C(c2cccc(NC(=O)c3cccc(C(F)(F)F)c3)c2)n2nccc21` [Example 14, tert-Butyl {2-oxo-2-[7-(3-{[3-(trifluoromethyl)benzoyl]amino}phenyl)pyrazolo[1,5-a]pyrimidin-4(5H)-yl]ethyl}carbamate], more than 10000 nM. For `NCC(=O)N1CC=C(c2cccc(NC(=O)c3cccc(C(F)(F)F)c3)c2)n2nccc21` [Example 15, N-[3-(4-Glycyl-4,5-dihydropyrazolo[1,5-a]pyrimidin-7-yl)phenyl]-3-(trifluoromethyl)benzamide], the IC50 was more than 10000 nM.

`CC(=O)NCC(=O)N1CC=C(c2cccc(NC(=O)c3cccc(C(F)(F)F)c3)c2)n2nccc21` [Example 16, N-{3-[4-(N-Acetylglycyl)-4,5-dihydropyrazolo[1,5-a]pyrimidin-7-yl]phenyl}-3-(trifluoromethyl)benzamide]: the IC50 is 1770 nM.

As for `CC(C)(C)OC(=O)NCCC(=O)N1CC=C(c2cccc(NC(=O)c3cccc(C(F)(F)F)c3)c2)n2nccc21` [Example 17, tert-Butyl {3-oxo-3-[7-(3-{[3-(trifluoromethyl)benzoyl]amino}phenyl)pyrazolo[1,5-a]pyrimidin-4(5H)-yl]propyl}carbamate], the IC50 was determined as 385 nM.

Consider `NCCC(=O)N1CC=C(c2cccc(NC(=O)c3cccc(C(F)(F)F)c3)c2)n2nccc21` [Example 18, N-[3-(4-β-Alanyl-4,5-dihydropyrazolo[1,5-a]pyrimidin-7-yl)phenyl]-3-(trifluoromethyl)benzamide], for which the 50% inhibitory concentration (IC50) is more than 10000 nM. Regarding `CC(=O)NCCC(=O)N1CC=C(c2cccc(NC(=O)c3cccc(C(F)(F)F)c3)c2)n2nccc21` [Example 19, N-{3-[4-(N-Acetyl-β-alanyl)-4,5-dihydropyrazolo[1,5-a]pyrimidin-7-yl]phenyl}-3-(trifluoromethyl)benzamide], the IC50 came to 716 nM. For `O=C(Nc1ccc(Cl)c(C2=CCNc3ccnn32)c1)c1cccc(C(F)(F)F)c1` [Example 20, N-[4-Chloro-3-(4,5-dihydropyrazolo[1,5-a]pyrimidin-7-yl)phenyl]-3-(trifluoromethyl)benzamide] the value was 161 nM.

For orientation: IC50 means the midpoint of a concentration-inhibition curve.
